The test system of assay [1] is Tau phosphorylation at Ser 396 in SH-SY5Y cells. The assay can be described thus: Aβ25-35-induced Tau phosphorylation (Ser396) in SH-SY5Y cells, Western blotting. Type of assay: cell-based, human. The note with it: 100 nM, inhibitors 1 hour, then Aβ25–35 6 hours, Western blot. As for the experimental part: It has been implicated that GSK-3β is involved in multiple cellular processes, and its ability to hyperphosphorylate Tau protein and induce neurofibrillary tangle was intensively studied. Therefore, the cell-based assay examining Tau phosphorylation at Serine 396 represents a direct functional assay to measure the cellular activity of GSK-3β inhibitors. Compounds 7c, 7f, 7j–l and 7o–q were tested for the ability to reduce Tau phosphorylation at Ser 396 in human neuroblastoma SH-SY5Y cells. LiCl, a well-known inhibitor of GSK-3β [24], was used as a positive control in this assay. […] The Aβ-induced Tau hyperphosphorylation results in neurofibrillary tangle formation, which plays an important role in Alzheimer’s disease. […] In addition, the predictions about these compounds’ brain permeability were performed using ADME module with Discovery Studio 2.1 software package.
SH-SY5Y human neuroblastoma cells were obtained from the American Type Culture Collection (ATCC, Manassas, VA, USA). Cells were cultured in 1:1 DMEM:Ham's F12 containing 10% (v/v) fetal bovine serum (HyClone, Logan, UT, USA), 1% penicillin, and 1% streptomycin at a humidified atmosphere with 5% CO2. The medium was changed every 2 days. […] Antigen-antibody complexes were detected by the ECL Kit.
In general terms: Immunoblotting shows a protein as a band on a membrane.

A further assay addresses T1, BRAF (Homo sapiens, UniProt P15056).
T1 construct: purchased Carna Biosciences, Inc
The assay can be described thus: BRAF kinase assay (HTRF). The format is biochemical. The note with it: read-out: BRAF inhibition% at 0.8 μg/mL (~2 μM). On the procedure: (§1) GSK3β belongs to CMGC family. Here, the other family members were used to evaluate the selectivity of GSK3β inhibitors, including PKC-epsilon (AGC family), JAK2 (TK family), Braf (TKL family), DRAK2 (CAMK family) and IKKβ (other family).The recombinant GST-GSK-3βprotein was expressed in Escherichia coli strain BL21-Codon Plus (DE3), purified by GSTrap affinity chromatography, and cleaved by thrombin. The GSK-3β kinase assay was carried out with the Z´-LYTETM Kinase Assay kit Ser/Thr 9 Peptide substrate (Invitrogen, Grand, NY, USA) in 10 μL reaction volume containing 50 nM enzyme, 30 μM ATP and 2 μM substrate peptide. Drak2 Proteins were presented by professor Jiang-ping Wu (Laboratory of Immunology, Research Centre, CHUM, Notre Dame Hospital, Pavilion DeSève). The Drak2 kinase reaction was performed in a final assay volume of 3.4 μL using the ADP-GLO Kinase Assay Kit (Promega, Madison, WI, USA), according the ADP-GLO protocol and read on an EnVision plate reader. The recombinant PKC-epsilon, IKKβ, and JAK2 with N-terminal His-tag were expressed using baculovirus expression system and purified with Ni-Beads. BRAF protein was from Carna Biosciences, Inc. (Kobe Port Island, Japan). And the related kinase reactions were performed in a final assay volume of 10 μL using the related HTRF Assay Kit (Cisbio, Codolet, France). Reactions were according the HTRF protocol and read on an EnVision plate reader. All reactions were carried out in triplicate. […] Data were expressed as mean ± SE.
(TR-FRET usually uses a lanthanide donor and a delayed reading to cut background.)

Another assay concerns the target T2, PKC-epsilon (Homo sapiens, UniProt Q02156).
T2 construct: His-tag (N); made in house
T2 sequence (Q02156 1-737): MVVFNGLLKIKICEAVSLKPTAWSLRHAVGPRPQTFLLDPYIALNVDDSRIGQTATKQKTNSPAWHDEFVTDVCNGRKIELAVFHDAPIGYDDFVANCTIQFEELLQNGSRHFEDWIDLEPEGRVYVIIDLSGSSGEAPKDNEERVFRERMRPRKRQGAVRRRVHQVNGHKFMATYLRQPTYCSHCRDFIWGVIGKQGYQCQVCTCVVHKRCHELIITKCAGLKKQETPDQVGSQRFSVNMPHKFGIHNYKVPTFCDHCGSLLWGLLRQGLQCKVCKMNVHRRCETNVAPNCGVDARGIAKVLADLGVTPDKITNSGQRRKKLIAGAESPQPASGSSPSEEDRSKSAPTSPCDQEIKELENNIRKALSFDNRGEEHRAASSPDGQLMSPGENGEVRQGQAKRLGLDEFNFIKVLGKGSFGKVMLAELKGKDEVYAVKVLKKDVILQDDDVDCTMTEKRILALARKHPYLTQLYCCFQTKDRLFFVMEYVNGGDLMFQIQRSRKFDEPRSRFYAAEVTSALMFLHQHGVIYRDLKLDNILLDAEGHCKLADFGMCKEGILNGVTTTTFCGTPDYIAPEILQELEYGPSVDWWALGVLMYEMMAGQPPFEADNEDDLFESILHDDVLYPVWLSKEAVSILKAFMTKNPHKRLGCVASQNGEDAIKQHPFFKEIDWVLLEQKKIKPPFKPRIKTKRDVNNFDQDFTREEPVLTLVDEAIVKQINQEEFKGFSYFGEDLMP
Briefly: PKC-epsilon kinase assay (HTRF). The note with it: read-out: PKC-epsilon inhibition% at 0.8 μg/mL (~2 μM). The format is biochemical. On the procedure:
as §1

Each structure is given as a SMILES string.

T1 sequence (P15056 whole entry): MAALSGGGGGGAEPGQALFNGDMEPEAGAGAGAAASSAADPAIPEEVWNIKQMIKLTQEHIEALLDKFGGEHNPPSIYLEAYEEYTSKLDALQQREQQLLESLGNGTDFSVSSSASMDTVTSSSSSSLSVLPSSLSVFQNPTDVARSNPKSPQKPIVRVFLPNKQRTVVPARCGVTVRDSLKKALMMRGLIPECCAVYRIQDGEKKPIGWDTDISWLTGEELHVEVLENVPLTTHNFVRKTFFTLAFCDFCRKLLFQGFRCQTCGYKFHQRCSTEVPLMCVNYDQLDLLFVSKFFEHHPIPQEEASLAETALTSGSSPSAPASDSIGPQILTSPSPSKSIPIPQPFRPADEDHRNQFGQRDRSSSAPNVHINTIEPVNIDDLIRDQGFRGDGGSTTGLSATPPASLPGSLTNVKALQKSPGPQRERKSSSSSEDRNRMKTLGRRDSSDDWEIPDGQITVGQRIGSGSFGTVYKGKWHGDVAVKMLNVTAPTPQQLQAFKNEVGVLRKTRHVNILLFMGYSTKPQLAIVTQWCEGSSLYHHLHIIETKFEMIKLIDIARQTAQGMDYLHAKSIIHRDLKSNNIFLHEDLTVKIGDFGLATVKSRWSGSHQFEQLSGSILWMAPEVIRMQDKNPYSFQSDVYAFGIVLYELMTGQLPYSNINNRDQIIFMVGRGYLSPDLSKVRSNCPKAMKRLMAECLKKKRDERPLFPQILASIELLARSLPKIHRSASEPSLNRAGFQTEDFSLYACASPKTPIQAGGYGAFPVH

On to `O=C1NC(=O)C(c2cn(CCCN3CCOCC3)c3ccc(Br)cc23)=C1c1noc2ccccc12` [7c, 3-(Benzo[d]isoxazol-3-yl)-4-(5-bromo-1-(3-morpholinopropyl)-1H-indol-3-yl)-1H-pyrrole-2,5-dione], for which the “Effect on Aβ25-35-induced Tau phosphorylation at Ser 396” value in assay [1] was “obviously reduce”. Besides, the inhibition at 2 µM on BRAF worked out at 3.4%; on PKC-epsilon, 12.1%.

These data come from publication PMC6270165, “Synthesis and Biological Evaluation of 3-Benzisoxazolyl-4-indolylmaleimides as Potent, Selective Inhibitors of Glycogen Synthase Kinase-3β” (Molecules, 2013).
